Laboratory results taken from ChEMBL document CHEMBL5052835, “Slc26a3 inhibitors and use thereof” (2021).
Calls of active or inactive are those of the source. The calls are words filed in the database; no cut-off is given here.

Assays:
Chloride anion exchanger = biological target: T1, Chloride anion exchanger (Mus musculus, UniProt Q9WVC8); assay: Inhibition of mouse Slc26a3 transfected in rat FRT cells preincubated with forskolin, 8-Br-cGMP and PMA and measured by fluorescence assay; type: cell-based
T1 sequence (Q9WVC8 whole entry): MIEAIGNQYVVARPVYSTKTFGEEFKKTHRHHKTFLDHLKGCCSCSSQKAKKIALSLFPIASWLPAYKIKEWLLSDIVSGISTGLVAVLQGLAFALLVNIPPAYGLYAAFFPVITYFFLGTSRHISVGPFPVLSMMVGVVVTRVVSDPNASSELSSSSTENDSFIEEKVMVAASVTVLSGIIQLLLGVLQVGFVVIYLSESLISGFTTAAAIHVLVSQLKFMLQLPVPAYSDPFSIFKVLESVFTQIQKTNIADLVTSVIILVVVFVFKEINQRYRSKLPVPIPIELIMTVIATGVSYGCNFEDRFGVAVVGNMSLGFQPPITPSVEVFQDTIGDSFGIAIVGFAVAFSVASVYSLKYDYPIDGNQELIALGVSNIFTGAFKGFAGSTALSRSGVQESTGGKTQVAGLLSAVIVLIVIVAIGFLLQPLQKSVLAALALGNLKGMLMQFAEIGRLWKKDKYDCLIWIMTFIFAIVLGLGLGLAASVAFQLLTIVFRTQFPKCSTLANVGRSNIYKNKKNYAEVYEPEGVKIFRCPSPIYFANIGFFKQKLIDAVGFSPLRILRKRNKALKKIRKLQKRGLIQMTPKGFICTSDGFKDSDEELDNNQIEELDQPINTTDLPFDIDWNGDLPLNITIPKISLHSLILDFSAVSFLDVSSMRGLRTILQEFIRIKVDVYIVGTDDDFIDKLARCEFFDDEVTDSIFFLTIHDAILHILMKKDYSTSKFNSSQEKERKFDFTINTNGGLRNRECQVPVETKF

Mus musculus [1] = assay: In vivo inhibition of slc26a3 in loperamide-induced constipation model of female CD-1 mouse at 5 mg/kg, po assessed as reduction in stool water content; type: functional, organism-based
Mus musculus [2] = assay: In vivo inhibition of slc26a3 in loperamide-induced constipation model of female CD-1 mouse at 5 mg/kg, po assessed as reduction in stool weight; type: functional, organism-based
Mus musculus [3] = assay: In vivo inhibition of slc26a3 in loperamide-induced constipation model of female CD-1 mouse at 5 mg/kg, po assessed as reduction in pellet number; type: functional, organism-based
Mus musculus [4] = assay: In vivo inhibition of slc26a3 in loperamide-induced constipation model of female CD-1 mouse at 1 to 10 mg/kg, po assessed as reduction in pellet number; type: functional, organism-based; conditions: dose 1-10 mg/kg
Mus musculus [5] = assay: Inhibition of oxalate absorption in sodium oxalate-induced acute hyperoxaluria mouse model at 10 mg/kg, ip; type: functional, organism-based
[6] = Toxicity in loperamide-induced constipation model of female CD-1 mouse at 10 mg/kg, po assessed as effect on stool parameters; type: organism-based; conditions: in vivo
Mus musculus [7] = assay: In vivo inhibition of slc26a3 in loperamide-induced constipation model of female CD-1 mouse at 1 to 10 mg/kg, po assessed as reduction in stool water content; type: functional, organism-based; conditions: dose 1-10 mg/kg
Mus musculus [8] = species on record: Mus musculus; assay: Inhibition of oxalate absorption in high oxalate and low calcium diet-induced oxalate nephropathy model of mouse assessed as normalization of creatinine level; type: functional, organism-based
Mus musculus [9] = assay: In vivo inhibition of slc26a3 in loperamide-induced constipation model of female CD-1 mouse at 1 to 10 mg/kg, po assessed as reduction in stool weight; type: functional, organism-based; conditions: dose 1-10 mg/kg
[10] = Toxicity in loperamide-induced constipation model of female CD-1 mouse at 10 mg/kg, po assessed as diarrhea; type: organism-based; conditions: in vivo
Colon = assay: Inhibition of fluid absorption in distal colonic loop isolated from female CD-1 mouse at 10 uM assessed as effect on reduction in loop weight/length ratio; type: functional, tissue-based
Mus musculus [11] = assay: In vivo inhibition of […] in loperamide-induced constipation model of female CD-1 mouse at 5 mg/kg, po assessed as reduction in pellet number; type: functional, organism-based
Mus musculus [12] = assay: In vivo inhibition of […] in loperamide-induced constipation model of female CD-1 mouse at 5 mg/kg, po assessed as reduction in stool weight; type: functional, organism-based
Mus musculus [13] = assay: In vivo inhibition of […] in loperamide-induced constipation model of female CD-1 mouse at 5 mg/kg, po assessed as reduction in stool water content; type: functional, organism-based

Structure (SMILES) | IC50 (Chloride anion exchanger; read-out: IC50) | further results
Cc1c(CC(=O)O)c(=O)oc2c(C)c(OCc3cccc(Cl)c3)ccc12 | 200 nM | –
COC(=O)CCc1c(C)c2ccc(OCc3ccc(C(C)(C)C)cc3)c(C)c2oc1=O | – | IC50 (Chloride anion exchanger; frt): Not Active
O=C(CSc1nccn1-c1ccc(Cl)cc1)Nc1ccc(Br)cc1 | 1800 nM | –
CCc1ccc(NC(=O)CSc2nccn2-c2ccc(OC)cc2)cc1 | 6500 nM | –
COC(=O)CCc1c(C)c2ccc(OCc3cccc(OC)c3)c(C)c2oc1=O | – | IC50 (Chloride anion exchanger; frt): Not Active
CCOc1ccc(-n2ccnc2SCC(=O)Nc2ccc(Cl)cc2)cc1 | 1700 nM | –
Cc1c(CC(=O)O)c(=O)oc2c(C)c(OCc3cccc(C(F)(F)F)c3)ccc12 | – | inhibition (Mus musculus [1]): Active; inhibition (Mus musculus [2]): Active; inhibition (Mus musculus [3]): Active
O=C(CSc1nccn1-c1ccc(Cl)cc1)Nc1ccc([N+](=O)[O-])cc1 | 7400 nM | –
Cc1c(CC(=O)O)c(=O)oc2c(C)c(OCc3ccc(C(C)(C)C)cc3)ccc12 | 4600 nM | –
Cc1c(CC(=O)O)c(=O)oc2c(C)c(OCc3ccccc3F)ccc12 | 510 nM | –
Cc1c(CC(=O)O)c(=O)oc2c(C)c(OCc3cccc(F)c3)ccc12 | 840 nM | –
O=C(CSc1nccn1-c1ccc(Cl)cc1)Nc1cccc(C(F)(F)F)c1 | 12000 nM | –
CCCCCOc1ccc2c(C)c(CC(=O)O)c(=O)oc2c1C | 1200 nM | –
Cc1ccc2ccccc2c1COc1ccc2c(C)c(CCC(=O)O)c(=O)oc2c1C | – | IC50 (Chloride anion exchanger; frt): Not Active
Cc1c(CC(=O)O)c(=O)oc2c(C)c(OCc3cccc(I)c3)ccc12 | – | inhibition (Mus musculus [4]): Active; inhibition (Mus musculus [5]): Active; Activity [6]: Non-Toxic; inhibition (Mus musculus [7]): Active; inhibition (Mus musculus [8]): Active; inhibition (Mus musculus [9]): Active; Activity [10]: Non-Toxic
CN1Cc2c(Cl)cc(Cl)cc2[C@H](c2cccc(S(=O)(=O)NCCOCCOCCNC(=O)NCCCCNC(=O)NCCOCCOCCNS(=O)(=O)c3cccc([C@@H]4CN(C)Cc5c(Cl)cc(Cl)cc54)c3)c2)C1 | – | inhibition (Colon): inactive; inhibition (Mus musculus [11]): Active; inhibition (Mus musculus [12]): Active; inhibition (Mus musculus [13]): Active
CCc1ccc(NC(=O)CSc2nccn2-c2ccc(Cl)cc2)cc1 | 5700 nM | –
Cc1cccc(COc2ccc3c(C)c(CC(=O)O)c(=O)oc3c2C)c1 | 480 nM | –
O=C(CSc1nccn1-c1cccc(Cl)c1)Nc1ccc(Cl)cc1 | 2200 nM | –
Cc1cc(C)cc(COc2ccc3c(C)c(CC(=O)O)c(=O)oc3c2C)c1 | 540 nM | –
COc1ccc(-n2ccnc2SCC(=O)Nc2ccc(Br)cc2)cc1 | 1900 nM | –
O=C(CSc1nccn1-c1ccc(Cl)cc1)Nc1ccc(Cl)cc1 | 1700 nM | –
CCc1ccc(NC(=O)CSc2nccn2-c2cccc(C)c2C)cc1 | 3500 nM | –
Cc1c(CCC(=O)O)c(=O)oc2c(C)c(OCc3ccc(F)cc3)ccc12 | – | IC50 (Chloride anion exchanger; frt): Not Active

Further lines, with some results ahead:

IC50 (Chloride anion exchanger; read-out: IC50) | Structure (SMILES) | further results
11000 nM | Cc1ccc(NC(=O)CSc2nccn2-c2ccc(Cl)cc2)cc1Cl | –
2100 nM | Cc1cc(C)cc(-n2ccnc2SCC(=O)Nc2ccc(C)c(Cl)c2)c1 | –
6400 nM | Cc1cccc(-n2ccnc2SCC(=O)Nc2ccc(Br)cc2)c1 | –
6200 nM | Cc1cccc(-n2ccnc2SCC(=O)Nc2ccc(Cl)cc2)c1 | –
1600 nM | Cc1ccc(NC(=O)CSc2nccn2-c2ccc(Cl)cc2)cc1 | –
4600 nM | Cc1cc(C)cc(-n2ccnc2SCC(=O)Nc2ccc(Cl)cc2)c1 | –
1500 nM | Cc1ccc(NC(=O)CSc2nccn2-c2ccccc2)cc1Cl | –
2900 nM | O=C(CSc1nccn1-c1cccc(Cl)c1)Nc1ccc(Cl)c(Cl)c1 | –
2500 nM | Cc1cc(C)cc(-n2ccnc2SCC(=O)Nc2ccc(Cl)c(Cl)c2)c1 | –
2600 nM | O=C(CSc1nccn1-c1ccc(F)cc1)Nc1ccc(Cl)c(Cl)c1 | –
7100 nM | COc1cccc(-n2ccnc2SCC(=O)Nc2ccc(C)cc2)c1 | –
